Consider one compound from article PMC9176790 (PLoS Pathogens, 2022).

In the assay the target is RaaR (RSp0912) (Ralstonia pseudosolanacearum, UniProt Q8XRE2). Briefly: biochemical.

Structures are written as SMILES.

Sequence of RaaR (RSp0912) (Q8XRE2 1-313 limits assumed): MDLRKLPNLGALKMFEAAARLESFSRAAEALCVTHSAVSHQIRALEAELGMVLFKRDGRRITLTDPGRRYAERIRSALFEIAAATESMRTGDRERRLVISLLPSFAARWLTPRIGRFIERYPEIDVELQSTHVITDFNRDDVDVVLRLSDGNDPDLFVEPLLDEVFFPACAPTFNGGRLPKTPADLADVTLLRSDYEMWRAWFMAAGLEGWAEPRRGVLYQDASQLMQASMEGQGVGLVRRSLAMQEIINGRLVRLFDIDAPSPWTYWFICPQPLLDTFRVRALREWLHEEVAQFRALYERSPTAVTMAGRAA

`Nc1ccccc1C(=O)O` [anthranilic acid] had a Kd of 3.63 µM.

As usually defined, the Kd is the concentration at which binding is half-saturated.
